Laboratory results as given in ChEMBL document CHEMBL1781913, “Design and synthesis of 3-alkyl-2-aryl-1,3-thiazinan-4-one derivatives as selective cyclooxygenase (COX-2) inhibitors” (Bioorg Med Chem Lett, 2009).

Molecular target: T1, Prostaglandin G/H synthase 1 (Ovis aries, UniProt P05979)
T1 sequence (P05979 whole entry): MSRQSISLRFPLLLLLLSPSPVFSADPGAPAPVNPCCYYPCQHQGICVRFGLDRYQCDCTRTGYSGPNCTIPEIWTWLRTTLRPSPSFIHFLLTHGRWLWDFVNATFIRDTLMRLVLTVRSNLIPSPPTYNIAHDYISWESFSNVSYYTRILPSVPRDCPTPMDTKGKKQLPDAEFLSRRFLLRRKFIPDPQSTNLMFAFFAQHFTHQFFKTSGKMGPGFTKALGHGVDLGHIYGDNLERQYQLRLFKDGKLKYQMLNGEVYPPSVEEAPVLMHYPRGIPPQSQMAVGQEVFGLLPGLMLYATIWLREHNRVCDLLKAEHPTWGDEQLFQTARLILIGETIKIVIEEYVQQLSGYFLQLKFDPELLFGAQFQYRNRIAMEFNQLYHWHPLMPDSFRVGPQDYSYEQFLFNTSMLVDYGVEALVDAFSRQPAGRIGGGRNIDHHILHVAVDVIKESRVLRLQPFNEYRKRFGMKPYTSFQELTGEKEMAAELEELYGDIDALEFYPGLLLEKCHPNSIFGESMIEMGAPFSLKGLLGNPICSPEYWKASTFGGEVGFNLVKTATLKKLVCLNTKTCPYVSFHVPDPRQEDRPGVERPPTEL
Assay: Inhibition of ovine COX1 by chemiluminescent assay

Row | IC50 [µM] | SMILES
1 | 14.8 | CCCCN1C(=O)CCSC1c1ccc(S(C)(=O)=O)cc1 (stereo not given)
2 | 17.2 | CS(=O)(=O)c1ccc(C2SCCC(=O)N2Cc2ccccc2)cc1 (stereo not given)
3 | 14.1 | CCCN1C(=O)CCSC1c1ccc(S(C)(=O)=O)cc1 (stereo not given)
4 | 16 | CS(=O)(=O)c1ccc(C2SCCC(=O)N2CCc2ccccc2)cc1 (stereo not given)
5 | 14.9 | CCCCCN1C(=O)CCSC1c1ccc(S(C)(=O)=O)cc1 (stereo not given)
